Assays:
[1] = target: T1, CDK2/CycE (Homo sapiens, UniProt P24941); test: CDK2/CycE kinase assay (Method 2a, TR-FRET, 10 μM ATP); format: biochemical
T1 construct: GST; purchased ProQinase GmbH (Freiburg, Germany); host or cells: insect cells (Sf9)
Excerpt: 2a. CDK2/CycE Kinase Assay:
CDK2/CycE-inhibitory activity of compounds of the present invention was quantified employing the CDK2/CycE TR-FRET assay as described in the following paragraphs:
Recombinant fusion proteins of GST and human CDK2 and of GST and human CycE, expressed in insect cells (Sf9) and purified by Glutathion-Sepharose affinity chromatography, were purchased from ProQinase GmbH (Freiburg, Germany). As substrate for the kinase reaction biotinylated peptide biotin-Ttds-YISPLKSPYKISEG (C-terminus in amid form) was used which can be purchased e.g. from the company JERINI Peptide Technologies (Berlin, Germany).
For the assay 50 nl of a 100 fold concentrated solution of the test compound in DMSO was pipetted into a black low volume 384 well microtiter plate (Greiner Bio-One, Frickenhausen, Germany), 2 μl of a solution of CDK2/CycE in aqueous assay buffer [50 mM Tris/HCl pH 8.0, 10 mM MgCl2, 1.0 mM dithiothreitol, 0.1 mM sodium ortho-vanadate, 0.01% (v/v) Nonidet-P40 (Sigma)] were added and the mixture was incubated for 15 min at 22° C. to allow pre-binding of the test compounds to the enzyme before the start of the kinase reaction. […] The concentration of CDK2/CycE was adjusted depending of the activity of the enzyme lot and was chosen appropriate to have the assay in the linear range, typical concentrations were in the range of 130 ng/mL. The reaction was stopped by the addition of 5 μl of a solution of TR-FRET detection reagents (0.2 μM streptavidine-XL665 [Cisbio Bioassays, Codolet, France] and 1 nM anti-RB(pSer807/pSer811)-antibody from BD Pharmingen [#558389] and 1.2 nM LANCE EU-W1024 labeled anti-mouse IgG antibody [Perkin-Elmer, product no. AD0077]) in an aqueous EDTA-solution (100 mM EDTA, 0.2% (w/v) bovine serum albumin in 100 mM HEPES pH 7.5).
(§1) The resulting mixture was incubated 1 h at 22° C. to allow the formation of complex between the phosphorylated biotinylated peptide and the detection reagents. Subsequently the amount of phosphorylated substrate was evaluated by measurement of the resonance energy transfer from the Eu-chelate to the streptavidine-XL. Therefore, the fluorescence emissions at 620 nm and 665 nm after excitation at 350 nm was measured in a TR-FRET reader, e.g. a Rubystar (BMG Labtechnologies, Offenburg, Germany) or a Viewlux (Perkin-Elmer). The ratio of the emissions at 665 nm and at […] was taken as the measure for the amount of phosphorylated substrate. The data were normalised (enzyme reaction without inhibitor=0% inhibition, all other assay components but no enzyme=100% inhibition).

[2] = target: T2, CDK9/CycT1 (Homo sapiens, UniProt P50750); test: CDK9/CycT1 kinase assay (Method 1a, TR-FRET, 10 μM ATP); format: biochemical; settings: for IC50: Method 1a, 10 μM ATP; for Selectivity CDK9 over CDK2: IC50 (CDK2)/IC50 (CDK9): Methods 1a and 2a, minimal values
T2 construct: Recombinant full-length His-tagged human CDK9 and CycT1; His; purchased Invitrogen PV4131; host or cells: insect cells
T2 sequence (P50750 whole entry): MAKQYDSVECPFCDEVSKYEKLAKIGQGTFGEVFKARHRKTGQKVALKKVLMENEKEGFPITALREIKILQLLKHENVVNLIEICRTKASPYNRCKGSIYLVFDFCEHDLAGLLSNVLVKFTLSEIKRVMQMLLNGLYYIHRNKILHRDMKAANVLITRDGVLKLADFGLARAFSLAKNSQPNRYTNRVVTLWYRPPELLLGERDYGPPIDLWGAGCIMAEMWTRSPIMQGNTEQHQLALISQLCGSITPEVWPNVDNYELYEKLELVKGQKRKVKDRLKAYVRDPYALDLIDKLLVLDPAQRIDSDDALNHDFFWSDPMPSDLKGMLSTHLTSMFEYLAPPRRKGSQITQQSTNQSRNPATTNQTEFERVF
T2 sequence (O60563 whole entry partner): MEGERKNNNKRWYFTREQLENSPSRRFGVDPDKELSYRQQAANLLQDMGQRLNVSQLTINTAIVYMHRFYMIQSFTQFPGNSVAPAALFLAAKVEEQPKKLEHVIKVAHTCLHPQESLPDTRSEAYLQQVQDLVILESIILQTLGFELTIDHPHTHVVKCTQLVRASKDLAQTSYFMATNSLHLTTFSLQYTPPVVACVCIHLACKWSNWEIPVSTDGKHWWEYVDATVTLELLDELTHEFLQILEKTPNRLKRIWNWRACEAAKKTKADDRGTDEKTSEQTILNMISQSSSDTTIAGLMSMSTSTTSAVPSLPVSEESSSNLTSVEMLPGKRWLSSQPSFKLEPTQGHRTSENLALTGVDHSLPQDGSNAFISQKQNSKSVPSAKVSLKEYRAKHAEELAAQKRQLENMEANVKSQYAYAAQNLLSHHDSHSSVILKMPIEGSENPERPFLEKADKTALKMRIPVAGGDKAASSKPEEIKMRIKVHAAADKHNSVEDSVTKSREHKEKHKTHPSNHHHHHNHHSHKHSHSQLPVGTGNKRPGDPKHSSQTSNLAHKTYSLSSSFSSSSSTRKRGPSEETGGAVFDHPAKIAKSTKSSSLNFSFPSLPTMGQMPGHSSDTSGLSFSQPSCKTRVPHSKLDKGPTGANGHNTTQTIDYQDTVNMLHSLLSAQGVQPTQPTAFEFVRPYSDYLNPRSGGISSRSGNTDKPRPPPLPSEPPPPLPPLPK
Excerpt: 1a. CDK9/CycT1 Kinase Assay:
CDK9/CycT1-inhibitory activity of compounds of the present invention was quantified employing the CDK9/CycT1 TR-FRET assay as described in the following paragraphs:
Recombinant full-length His-tagged human CDK9 and CycT1, expressed in insect cells and purified by Ni-NTA affinity chromatography, were purchased from Invitrogen (Cat. No PV4131). As substrate for the kinase reaction biotinylated peptide biotin-Ttds-YISPLKSPYKISEG (C-terminus in amid form) was used which can be purchased e.g. from the company JERINI Peptide Technologies (Berlin, Germany). For the assay 50 nl of a 100 fold concentrated solution of the test compound in DMSO was pipetted into a black low volume 384 well microtiter plate (Greiner Bio-One, Frickenhausen, Germany), 2 μl of a solution of CDK9/CycT1 in aqueous assay buffer [50 mM Tris/HCl pH 8.0, 10 mM MgCl2, 1.0 mM dithiothreitol, 0.1 mM sodium ortho-vanadate, 0.01% (v/v) Nonidet-P40 (Sigma)] were added and the mixture was incubated for 15 min at 22° C. to allow pre-binding of the test compounds to the enzyme before the start of the kinase reaction. Then the kinase reaction was started by the addition of 3 μl of a solution of adenosine-tri-phosphate (ATP, […]=> final conc. in the 5 μl assay volume is 10 μM) and substrate (1.67 μM=> final conc. in the 5 μl assay volume is 1 μM) in assay buffer and the resulting mixture was incubated for a reaction time of 25 min at 22° C. The concentration of CDK9/CycT1 was adjusted depending of the activity of the enzyme lot and was chosen appropriate to have the assay in the linear range, typical concentrations were in the range of 1 μg/mL. The reaction was stopped by the addition of 5 μl of a solution of TR-FRET detection reagents (0.2 μM streptavidine-XL665 [Cisbio Bioassays, Codolet, France] and 1 nM anti-RB(pSer807/pSer811)-antibody from BD Pharmingen [#558389] and 1.2 nM LANCE EU-W1024 labeled anti-mouse IgG antibody [Perkin-Elmer, product no. AD0077]) in an aqueous EDTA-solution (100 mM EDTA, 0.2% (w/v) bovine serum albumin in 100 mM HEPES pH 7.5).
as §1, with “HTRF” for “TR-FRET”

SMILES	IC50 [1]	IC50 [2]	Selectivity CDK9 over CDK2: IC50 (CDK2)/IC50 (CDK9) [2]
CS(=N)(Cc1cc2cc(c1)OCCCCOc1cc(F)ccc1-c1nc(ncc1F)N2)=NC1CC1 (racemic) [Example 9, (rac)-9-[(N-cyclopropyl-S-methylsulfonodiimidoyl)methyl]-16,20-difluoro-2,3,4,5-tetrahydro-12H-13,17-(azeno)-11,7-(metheno)-1,6,12,14-benzodioxadiazacyclononadecine]	143 nM	3.6 nM	39.7
CS(=N)(=N)Cc1cc2cc(c1)OCCCCOc1cc(F)ccc1-c1nc(ncc1F)N2 [Example 5, 16,20-difluoro-9-[(S-methylsulfonodiimidoyl)methyl]-2,3,4,5-tetrahydro-12H-13,17-(azeno)-11,7-(metheno)-1,6,12,14-benzodioxadiazacyclononadecine]	92.6 nM	3.4 nM	27.2
CS(=N)(=N)Cc1cc2cc(c1)OCCCCOc1c(ccc(F)c1F)-c1nc(ncc1F)N2 [Example 6, 16,20,21-trifluoro-9-[(S-methylsulfonodiimidoyl)methyl]-2,3,4,5-tetrahydro-12H-13,17-(azeno)-11,7-(metheno)-1,6,12,14-benzodioxadiazacyclononadecine]	1430 nM	8.2 nM	174
CS(=N)(=N)Cc1cc2cc(c1)OCCCCOc1c(F)cccc1-c1nc(ncc1F)N2 [Example 7, 16,21-difluoro-9-[(S-methylsulfonodiimidoyl)methyl]-2,3,4,5-tetrahydro-12H-13,17-(azeno)-11,7-(metheno)-1,6,12,14-benzodioxadiazacyclononadecine]	1170 nM	5.6 nM	209
CS(=N)(=N)Cc1cc2nc(c1C#N)OCCCOc1cc(F)ccc1-c1cc(ncc1F)N2 [Example 8, 15,19-difluoro-8-[(S-methylsulfonodiimidoyl)methyl]-3,4-dihydro-2H,11H-10,6-(azeno)-12,16-(metheno)-1,5,11,13-benzodioxadiazacyclooctadecine-7-carbonitrile]	71.2 nM	3.7 nM	19.2

Results, then the molecule that gave them:

IC50 [1]	IC50 [2]	Selectivity CDK9 over CDK2: IC50 (CDK2)/IC50 (CDK9) [2]	SMILES
22.5 nM	2.9 nM	7.8	CS(=N)(Cc1cc2nc(c1)OCCCOc1cc(F)ccc1-c1cc(ncc1F)N2)=NCCCO (racemic) [Example 2, (rac)-3-(2-{[15,19-difluoro-3,4-dihydro-2H,11H-10,6-(azeno)-12,16-(metheno)-1,5,11,13-benzodioxadiazacyclooctadecin-8-yl]methyl}-2-methyl-2λ^6-diazathia-1,2-dien-1-yl)propan-1-ol]
6 nM	2.9 nM	2.1	CS(=N)(Cc1cc2nc(c1)OCCCOc1cc(F)ccc1-c1cc(ncc1F)N2)=NC#N (racemic) [Example 3, (rac)-[{[15,19-difluoro-3,4-dihydro-2H,11H-10,6-(azeno)-12,16-(metheno)-1,5,11,13-benzodioxadiazacyclooctadecin-8-yl]methyl}(imino)methyl-λ^6-sulfanylidene]cyanamide]
37.3 nM	9.2 nM	4.1	CN=S(C)(=N)Cc1cc2nc(c1)OCCCOc1cc(F)ccc1-c1cc(ncc1F)N2 (racemic) [Example 4, (rac)-8-[(N,S-dimethylsulfonodiimidoyl)methyl]-15,19-difluoro-3,4-dihydro-2H,11H-10,6-(azeno)-12,16-(metheno)-1,5,11,13-benzodioxadiazacyclooctadecine]
16.4 nM	3.3 nM	5.0	CS(=N)(=N)Cc1cc2nc(c1)OCCCOc1cc(F)ccc1-c1cc(ncc1F)N2 [Example 1, 15,19-difluoro-8-[(S-methylsulfonodiimidoyl)methyl]-3,4-dihydro-2H,11H-10,6-(azeno)-12,16-(metheno)-1,5,11,13-benzodioxadiazacyclooctadecine]

Reference: patent publication US10717749B2, “Macrocyclic sulfondiimine compounds” (BAYER PHARMA AKTIENGESELLSCHAFT, priority 2015, dated 2020)
